In article PMC7316994, “In Vitro Pharmacological Profile of a New Small Molecule Bradykinin B2 Receptor Antagonist” (Frontiers in Pharmacology, 2020):
Several values for one entry are separate records, joined by “and”; a condition that tells them apart may be missing. Equal values may be shown once.

Legend:
kinin B1 receptor = molecular target: T1, kinin B1 receptor (Homo sapiens, UniProt P46663); experiment: umbilical vein, Sar-[D-Phe^8]des-Arg^9-BK-induced contraction; settings: 1 μM
T1 construct: during the 3-hour incubation period to upregulate the expression of B1; from tissue; host or cells: human umbilical vein rings pre-incubated with interleukin-1β and tumor necrosis factor-α
T1 sequence (P46663 whole entry): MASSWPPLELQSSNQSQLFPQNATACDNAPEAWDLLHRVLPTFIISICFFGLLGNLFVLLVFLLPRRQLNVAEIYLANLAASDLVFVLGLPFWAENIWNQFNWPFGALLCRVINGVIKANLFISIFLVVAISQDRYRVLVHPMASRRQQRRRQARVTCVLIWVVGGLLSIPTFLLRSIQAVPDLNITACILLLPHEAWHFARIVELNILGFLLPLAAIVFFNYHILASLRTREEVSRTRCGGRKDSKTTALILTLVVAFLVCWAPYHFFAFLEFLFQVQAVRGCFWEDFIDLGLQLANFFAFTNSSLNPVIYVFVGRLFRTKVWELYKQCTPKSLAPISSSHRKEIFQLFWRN

[1] = molecular target: T2, endogenous human B2 receptor (Homo sapiens, UniProt P30411); experiment: human isolated umbilical vein contractility assay, BK-induced contraction; settings: for Maximal BK-induced response in absolute force units ± S.E.M.: vehicle: Icatibant 1.90, Compound 1 […]
T2 construct: BK-induced contraction at endogenous human B2 receptor in the umbilical vein model; from tissue; host or cells: human umbilical vein rings (donor cords after elective caesarean section)
T2 sequence (P30411 1-391): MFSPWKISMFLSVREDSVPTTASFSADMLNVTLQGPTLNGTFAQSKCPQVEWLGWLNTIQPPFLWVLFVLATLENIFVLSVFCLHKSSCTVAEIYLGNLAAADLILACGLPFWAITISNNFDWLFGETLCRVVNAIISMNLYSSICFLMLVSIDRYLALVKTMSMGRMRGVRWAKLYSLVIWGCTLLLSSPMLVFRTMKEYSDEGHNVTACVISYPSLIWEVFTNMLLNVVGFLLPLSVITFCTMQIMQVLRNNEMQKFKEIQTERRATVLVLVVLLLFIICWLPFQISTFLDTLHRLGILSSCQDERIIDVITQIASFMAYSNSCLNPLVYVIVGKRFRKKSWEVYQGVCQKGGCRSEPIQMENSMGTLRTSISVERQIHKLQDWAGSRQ

Neurokinin NK2 = molecular target: T3, Neurokinin NK2 (Homo sapiens, UniProt P21452); design: method as in FDA Pharmacology Review Icatibant; settings: ref FDA Pharmacology Review Icatibant; read-out: IC50, binding to NK2 receptors; cited from earlier work
T3 construct: host or cells: CHO cells
T3 sequence (P21452 1-398): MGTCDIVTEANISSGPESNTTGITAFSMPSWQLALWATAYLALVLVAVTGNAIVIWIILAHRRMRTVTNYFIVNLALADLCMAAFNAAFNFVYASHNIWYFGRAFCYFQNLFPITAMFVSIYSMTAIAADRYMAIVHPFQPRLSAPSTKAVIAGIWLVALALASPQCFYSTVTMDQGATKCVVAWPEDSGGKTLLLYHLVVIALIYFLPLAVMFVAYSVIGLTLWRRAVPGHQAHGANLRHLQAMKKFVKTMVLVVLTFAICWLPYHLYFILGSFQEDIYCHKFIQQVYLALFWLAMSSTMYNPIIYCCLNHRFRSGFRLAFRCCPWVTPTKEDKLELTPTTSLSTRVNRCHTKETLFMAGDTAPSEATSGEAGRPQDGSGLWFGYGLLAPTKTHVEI

mouse B2 receptor = molecular target: T4, mouse B2 receptor (Mus musculus, UniProt P32299); experiment: Ca^2+ mobilization assay, HEK293T cells; assay type: cell-based; settings: BK at EC80 0.53 nM, n=1
T4 construct: host or cells: HEK293T cells
T4 sequence (P32299 1-392): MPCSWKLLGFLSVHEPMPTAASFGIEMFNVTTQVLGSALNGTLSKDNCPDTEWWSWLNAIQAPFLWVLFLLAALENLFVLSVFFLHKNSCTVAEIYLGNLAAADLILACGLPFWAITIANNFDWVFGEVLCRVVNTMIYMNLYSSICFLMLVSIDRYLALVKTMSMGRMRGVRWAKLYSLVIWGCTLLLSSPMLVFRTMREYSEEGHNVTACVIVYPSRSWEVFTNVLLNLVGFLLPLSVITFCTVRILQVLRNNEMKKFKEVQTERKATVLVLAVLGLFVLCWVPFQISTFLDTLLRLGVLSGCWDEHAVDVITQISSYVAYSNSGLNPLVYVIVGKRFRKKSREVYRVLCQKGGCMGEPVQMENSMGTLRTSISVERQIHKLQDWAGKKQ

rat B2 receptor = molecular target: T5, rat B2 receptor (Rattus norvegicus, UniProt P25023); experiment: Ca^2+ mobilization assay, HEK293T cells; assay type: cell-based; settings: BK at EC80 4.32 nM
T5 construct: host or cells: HEK293T cells
T5 sequence (P25023 1-396): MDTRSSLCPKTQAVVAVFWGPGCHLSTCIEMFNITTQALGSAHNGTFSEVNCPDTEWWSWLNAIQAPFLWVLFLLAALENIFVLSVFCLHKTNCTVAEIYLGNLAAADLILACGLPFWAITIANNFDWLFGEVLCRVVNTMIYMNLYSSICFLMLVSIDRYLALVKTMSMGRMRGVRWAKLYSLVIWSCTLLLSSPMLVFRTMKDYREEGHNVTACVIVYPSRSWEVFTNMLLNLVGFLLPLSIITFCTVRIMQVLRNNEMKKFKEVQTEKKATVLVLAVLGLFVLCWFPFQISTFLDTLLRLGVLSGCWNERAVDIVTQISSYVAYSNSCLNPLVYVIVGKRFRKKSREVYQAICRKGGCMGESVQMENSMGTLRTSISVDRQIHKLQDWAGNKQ

[2] = molecular target: T2, endogenous human B2 receptor; design: method as in Marceau et al., 1994; settings: umbilical vein; ref Marceau et al., 1994; cited from earlier work
[3] = molecular target: T6, cynomolgus monkey B2 receptor (Macaca fascicularis, UniProt A0A7N9CWN6); experiment: cell-based
T6 sequence (A0A7N9CWN6 1-391): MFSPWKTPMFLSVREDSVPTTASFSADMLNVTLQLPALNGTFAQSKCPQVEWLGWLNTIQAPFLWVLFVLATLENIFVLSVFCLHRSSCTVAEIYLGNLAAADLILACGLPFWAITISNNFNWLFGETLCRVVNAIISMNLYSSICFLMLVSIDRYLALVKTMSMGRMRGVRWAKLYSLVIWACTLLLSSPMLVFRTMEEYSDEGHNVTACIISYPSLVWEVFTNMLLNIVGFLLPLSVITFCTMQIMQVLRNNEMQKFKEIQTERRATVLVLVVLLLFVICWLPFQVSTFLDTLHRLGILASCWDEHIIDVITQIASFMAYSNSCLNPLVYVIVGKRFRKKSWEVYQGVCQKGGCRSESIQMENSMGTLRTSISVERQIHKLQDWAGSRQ

dog B2 receptor = molecular target: T7, dog B2 receptor (Canis lupus familiaris, UniProt Q9BDQ4); experiment: Ca^2+ mobilization assay, HEK293T cells; assay type: cell-based; settings: Dog; BK at EC80 1.86 nM; n=1; read-out: IC50 (nM) Mean
T7 sequence (Q9BDQ4 1-392): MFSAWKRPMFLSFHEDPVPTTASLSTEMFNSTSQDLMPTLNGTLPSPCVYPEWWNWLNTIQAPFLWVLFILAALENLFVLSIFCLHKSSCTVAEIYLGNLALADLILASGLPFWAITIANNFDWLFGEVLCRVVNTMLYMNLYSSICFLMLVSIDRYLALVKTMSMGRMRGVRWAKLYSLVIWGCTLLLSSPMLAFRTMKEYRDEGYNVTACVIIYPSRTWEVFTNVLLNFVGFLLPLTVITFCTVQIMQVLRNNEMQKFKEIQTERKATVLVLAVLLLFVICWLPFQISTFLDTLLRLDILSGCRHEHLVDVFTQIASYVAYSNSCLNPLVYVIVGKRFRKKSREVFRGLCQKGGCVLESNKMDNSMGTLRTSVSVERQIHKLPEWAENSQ

Q: For NC(N)=NCCC[C@@H](N)C(=O)N[C@@H](CCCN=C(N)N)C(=O)N1CCC[C@H]1C(=O)N1C[C@H](O)C[C@H]1C(=O)NCC(=O)N[C@@H](Cc1cccs1)C(=O)N[C@@H](CO)C(=O)N1Cc2ccccc2C[C@@H]1C(=O)N1[C@H](C(=O)N[C@@H](CCCN=C(N)N)C(=O)O)C[C@@H]2CCCC[C@@H]21 [icatibant, reference compound], which “effect on contraction by B1 receptor agonist Sar-[D-Phe^8]des-Arg^9-BK” value (kinin B1 receptor) is on record?
A: failed to antagonize

Q: And the “type of antagonism of BK” value ([1]; BK concentration-effect curves, Emax)?
A: competitive (surmountable) antagonist

Q: And the Schild plot slope ([1]; Schild regression, Pharm/PCS, ± S.E.M. where given)?
A: -0.85 ± 0.16 and −0.85

Q: What about the “Maximal BK-induced response in absolute force units ± S.E.M.” value (“Maximal BK-induced response” below) ([1]; antagonist 10 nM, Compound 2 2.25, Compound 3 1.52) of the same compound?
A: 1.47 ± 0.19 grams-weight

Q: What about the “Maximal BK-induced response” value ([1]; antagonist 100 nM, Compound 2 2.25, Compound 3 1.52) of the same compound?
A: 1.50 ± 0.27 grams-weight

Q: What about the “Maximal BK-induced response” value ([1]; antagonist 1 μM, Compound 2 2.25, Compound 3 1.52) of the same compound?
A: 1.40 ± 0.22 grams-weight

Q: What about the “Maximal BK-induced response” value ([1]; antagonist 10 μM, Compound 2 2.25) of the same compound?
A: 1.27 ± 0.17 grams-weight

Q: And the “pA2 value converted into nM” value ([1]; potency from pA2)?
A: 8.71 nM and 8.7 nM

Q: What about the IC50 (Neurokinin NK2) of the same compound?
A: 420 nM

Q: And the IC50 (mouse B2 receptor)?
A: 15.5 nM

Q: What about the IC50 (rat B2 receptor) of the same compound?
A: 37.4 nM

Q: What about the “pA2, previously reported value” [2] of the same compound?
A: 8.2

Q: And the IC50 [3]?
A: 17.1 nM

Q: What about the Kb [3] of the same compound?
A: 4.06 nM

Q: What about the IC50 (dog B2 receptor) of the same compound?
A: 87.1 nM
